Measured values from PubChem BioAssay (NCI).
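Interpolation was linear, between the two tested concentrations surrounding the appropriate level; five concentrations were tested over 48 hours in 96-well plates. GI50 = concentration required for 50% inhibition of growth. TGI: concentration producing complete growth inhibition.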

What was measured:
Test in all cases: NCI anticancer screen, dose series, 48 h
786-0 renal = test system: 786-0 renal
EKVX NSCLC = test system: EKVX NSCLC
K-562 leukemia = test system: K-562 leukemia
NCI-H522 lung = test system: NCI-H522 lung
OVCAR-4 ovarian = test system: OVCAR-4 ovarian
SN12C renal = test system: SN12C renal
U251 CNS = test system: U251 CNS
UACC-257 melanoma = test system: UACC-257 melanoma
UACC-62 melanoma = test system: UACC-62 melanoma
A498 renal = test system: A498 renal

SMILES | TGI (786-0 renal) [µM] | TGI (EKVX NSCLC) [µM] | TGI (K-562 leukemia) [µM] | TGI (NCI-H522 lung) [µM] | TGI (OVCAR-4 ovarian) [µM] | TGI (SN12C renal) [µM] | TGI (U251 CNS) [µM] | TGI (UACC-257 melanoma) [µM] | TGI (UACC-62 melanoma) [µM] | GI50 (786-0 renal) [µM] | GI50 (EKVX NSCLC) [µM] | GI50 (K-562 leukemia) [µM] | GI50 (NCI-H522 lung) [µM] | GI50 (OVCAR-4 ovarian) [µM] | GI50 (SN12C renal) [µM] | GI50 (U251 CNS) [µM] | GI50 (UACC-257 melanoma) [µM] | GI50 (UACC-62 melanoma) [µM] | GI50 (A498 renal) [µM] | TGI (A498 renal) [µM]
COc1cc2cc3c4c(cc(OC)c(OC)c4c2cc1OC)CCN3C(=O)CCC(=O)NCCCN(C)C | > 100 | > 100 | > 100 | 45.8 | > 100 | > 100 | > 100 | > 100 | > 100 |  |  |  |  |  |  |  |  |  |  | 
CC1=C(C(=O)Nc2ccc(Cl)c(Cl)c2)C(c2ccccc2O)NC(=O)N1 (stereo unspecified) | > 50 | > 50 | > 50 | > 50 | > 50 | > 50 | > 50 | > 50 | > 50 | > 50 | 28.6 | 26 | > 50 | 42.7 | 34.6 | > 50 | > 50 | 35.1 |  | 
Cc1cc(C(O)CN(C)C)cc2c1ccc1cc(C(C)C)ccc12 (stereo unspecified) | 3.4 | 17.9 | 4.88 | 3.72 | 4.84 | 20.6 | 3.53 | 3.79 |  | 1.84 | 3.39 | 2.15 | 1.84 | 2.33 | 3.19 | 1.92 | 2.11 |  | 2.36 | 11.7
COc1ccc2nc3ccccc3c(NCCCCN(C)CCCl)c2c1 | 0.185 | 3.05 | 0.93 | 0.0763 | 0.843 | 0.128 | 0.251 | 4.93 | 0.305 |  |  |  |  |  |  |  |  |  |  | 
COc1cccc(NC(=O)C(=O)C(C(C)=O)c2nc3ccc(Cl)cc3[nH]c2=O)c1 (stereo unspecified) | > 100 | > 100 | > 100 |  | > 100 | > 100 | > 100 | > 100 | > 100 |  |  |  |  |  |  |  |  |  |  | > 100
C[C@@H]1C[C@]2(C[C@@H](C)C3[C@@H](CC4(C)[C@@H]5CCC6C(C)(C)OC(=O)C=C[C@]67C[C@@]5(CC[C@]34C)OO7)O2)OC1=O (stereo partly specified) | > 100 |  | > 100 | 90.3 | 64.4 | > 100 | > 100 | > 100 | > 100 |  |  |  |  |  |  |  |  |  |  | 
FC1OC2OC1C(OCc1ccccc1)C(OCc1ccccc1)C2OCc1ccccc1 (stereo unspecified) | > 100 | > 100 | 75.1 |  | > 100 | > 100 | > 100 | > 100 | > 100 |  |  |  |  |  |  |  |  |  |  | > 100
Cc1nc(-n2nc(-c3ccccc3)cc2-c2ccccc2)sc1C(/C=C/c1ccc([N+](=O)[O-])cc1)=N/NC(=O)c1ccncc1 | 37 | > 100 | > 100 |  |  | > 100 | > 100 | > 100 | 81.1 |  |  |  |  |  |  |  |  |  |  | > 100
CO[C@@]12[C@@H]3NC3CN1C1=C(C(=O)C(N)=C(C)C1=O)[C@@H]2COC(N)=O (stereo partly specified) | 2.77 | 20.2 | > 100 | 2.13 | 33.9 | > 40.9 |  | 2.14 |  |  | 3.09 | 0.965 | 0.325 | 2.22 |  |  |  |  |  | 1.21
N[C@@H]1CCCC[C@@H]1N.O=P([O-])([O-])CN(CP(=O)([O-])[O-])CP(=O)([O-])[O-].[Pt+2] | > 100 |  | > 100 |  | > 100 | > 100 | > 100 | > 100 | > 100 | > 100 |  | > 100 |  | > 100 | > 100 | > 100 | > 100 | > 100 | > 100 | > 100
O=C1c2ccccc2C(=O)c2nc3ccc(Cl)cc3cc21 | > 100 | > 100 | > 100 | > 100 | > 100 | > 100 | > 100 |  | > 100 |  |  |  |  |  |  |  |  |  |  | 
CCSC(SCC)=C1C(=O)N(c2ccccc2)N=C1C | 27 | 28.5 | 23.3 | 5.05 |  | 30 |  | 18.5 | 28 |  |  |  |  |  |  |  |  |  |  | 28.8
CCN(CC)CCN(C(=O)C(C)(C)C)c1ccccc1N | > 100 | > 100 | > 100 | > 100 | > 100 | > 100 | > 100 | > 100 | > 100 |  |  |  |  |  |  |  |  |  |  | 
COc1nc(NC2OC(COC(C)=O)C(OC(C)=O)C(OC(C)=O)C2OC(C)=O)c(-c2csc(N)n2)c(=O)n1C (stereo unspecified) | 54.6 |  | > 100 | > 100 | > 100 | > 100 | > 100 | > 100 | > 100 |  |  |  |  |  |  |  |  |  |  | > 100
O=C1CN(/N=C/c2ccc(-c3ccc(F)cc3)o2)C(=O)N1 | > 100 | > 100 | > 100 | 85 |  | > 100 | > 100 | > 100 | > 100 |  |  |  |  |  |  |  |  |  |  | > 100
CCOC(=O)C1COc2cc(-c3cc(=O)c4ccccc4o3)ccc2O1 (stereo unspecified) | > 100 | > 100 | > 100 | > 100 | > 100 | > 100 | > 100 |  | > 100 |  |  |  |  |  |  |  |  |  |  | 
CNC(=O)CN(CC(N)=O)C(N)=O | > 100 | > 100 | > 100 | > 100 | > 100 |  | > 100 |  | > 100 |  |  |  |  |  |  |  |  |  |  | > 100
CCOC(=O)[C@H]1Nc2ccccc2C2c3ccccc3CC21 (stereo partly specified) | > 100 |  | > 100 | > 100 | > 100 | 96.3 | > 100 | 56.9 | > 100 |  |  |  |  |  |  |  |  |  |  | 61.8
O=c1cc(-c2ccccn2)[nH]c2ccc(Cl)cc12 | > 100 | > 100 | > 100 | 97.2 | > 100 | > 100 |  | > 100 | > 100 |  |  |  |  |  |  |  |  |  |  | 
CCCCCCCCCCCCCc1nn[nH]n1 | 31.5 | 52 |  | 42.6 | 35.4 | 35.9 | 32.8 | 35.9 | 34.6 |  |  |  |  |  |  |  |  |  |  | 32.2
Cc1ccc(NC(=O)CC(=O)N2N=C(N(CCC#N)c3cccc(C)c3)CC2c2ccccc2)cc1 (stereo unspecified) | > 100 | > 100 | > 100 | > 100 | > 100 | > 100 | > 100 | > 100 | > 100 |  |  |  |  |  |  |  |  |  |  | 
CCOc1cc(-c2ccc[nH]2)[nH]c1/C=C1\N=C(C)C(C(=O)OC)=C1C | 0.259 | 2.3 |  | 0.318 | 1.45 | 1.72 | 0.814 | 0.939 | 0.0581 | 0.0329 | 0.235 |  | 0.0561 | 0.0449 | 0.0444 | 0.0319 | 0.0551 | 0.024 | 0.47 | 1.92
CCCCCCCCCCCCOP(N)(=O)OCCCCCCCCCCCC | > 100 | > 100 | > 100 | > 100 |  | > 100 | > 100 | > 100 | > 100 |  |  |  |  |  |  |  |  |  |  | 
CN1CCN(c2nc(-c3ccncc3)nc3sc4c(c23)CCCCCC4)CC1 | 20.2 |  | 16.3 | 24.6 | 28 | 22 | 25 | 23 | 24 | 4.77 |  | 3.53 | 12 | 12.7 | 5.64 | 9.29 | 10.6 | 11 | 1.06 | 7.56
COc1ccc(C2CCc3cc4c(cc3/C2=N/OC(C)=O)OCO4)cc1OC (stereo unspecified) | > 100 | > 100 | > 100 | 53.4 | > 100 | > 100 | > 100 | 51.6 | 57.7 |  |  |  |  |  |  |  |  |  |  | 
Cc1c(C(=O)CSc2nc3ccccc3[nH]2)c(=O)n(-c2ccccc2)n1C | > 100 |  |  | > 100 | > 100 | > 100 | > 100 | > 100 |  |  |  |  |  |  |  |  |  |  |  | > 100
O=C(Cc1ccccc1)NN1C(=O)/C(=C\c2ccc(O)cc2)SC1=Nc1ccccc1 | > 100 | > 100 | > 100 |  | > 100 | > 100 | > 100 | > 100 | > 100 |  |  |  |  |  |  |  |  |  |  | > 100
CCC1CNC(=O)CC1CC(=O)OC (stereo unspecified) | > 100 | > 100 | > 100 | > 100 | > 100 | > 100 | > 100 |  | > 100 |  |  |  |  |  |  |  |  |  |  | 
O=C(Cc1csc2nc(-c3ccc(Br)cc3)cn12)N/N=C/c1ccc(O)cc1 | 89 | 65.9 | 7.02 | 34.5 | > 100 | 44.1 | > 100 | 7.72 | 23.5 | 26.1 | 11.5 | 1.83 | 10.7 | > 100 | 15.4 | 21.3 | 1.52 | 9.11 |  | 
C#CCN(Cc1ccc2nc(N)[nH]c(=O)c2c1)c1ccc(C(=O)NC(CCC(=O)O)C(=O)O)cc1 (stereo unspecified) | > 100 | > 100 |  |  |  | > 100 | > 100 | > 100 |  |  |  |  |  |  |  |  |  |  |  | > 100
